Data: patent US20250332143A1, “COMPOSITION COMPRISING ALOX5 INHIBITOR FOR PREVENTING OR TREATING SARCOPENIA” (PLUTO Inc., priority 2022, published 2025)
Entries after “also recorded” stand apart in the source; their conditions may differ.

Experiments:
aged C57BL/6J mice = assay: Sarcopenia model using aging mice; assay type: in vivo, mouse
Description: Male C57BL/6J mice over 21 months of age were divided into 2 groups of 5 and treated with drugs as follows: 1) 0.5% carboxyl methyl with 6.73% DMSO (Vehicle group) and 2) 50 mg/kg of malotilate (at a concentration of 50 mg/kg, 0.5% carboxyl methyl with 6.73% DMSO) (Malotilate group). Those were administered orally daily for 4 weeks. Afterwards, the function and condition of the muscles were analyzed.
Grip strength was measured with the BIO-GS3 grip strength test meter (Bioseb, FL, USA). Grip strength was measured by placing the mouse on a grid and gently pulling it back with all four paws until the mouse fell off the grid. The trials were conducted with a time interval of 30 seconds, and the largest value among the three trials was selected as the representative muscle strength.
Muscle fatigue was measured from two different models using Rotarod (Ugo Basile, Italy). One is a constant speed model that measures how long movement can be continued on a cylinder rotating at a constant speed, and the other model is an acceleration model that measures how fast the mouse can continue movement when the speed of the cylinder increases at regular intervals. Mice were trained to adapt from 5 rpm to 15 rpm one day before measurement in the above two models.
Before sacrifice, mice were anesthetized by intraperitoneally administering 22 mg/kg Ketamine (Yuhan, Republic of Korea) and 10 mg/kg xylazine (Bayer, Republic of Korea) by IP injection, and then samples were collected. Quadriceps, gastrocnemius, tibialis anterior and soleus muscles were sampled and their weights were measured. The muscles sampled for immunohistostaining were cultured overnight at 4° C. with 4% paraformaldehyde, fixed, embedded in paraffin solution, and stored at −80° C. Cutting and hematoxylin & eosin staining were carried out at the Animal Research Facility of the Gwangju Institute of Science and Technology, Republic of Korea. Hematoxylin & eosin staining was performed using the kit (Merck, Germany). The cross-sectional area of muscle fibers was measured using ImageJ 1.48 software (National Institutes of Health, USA).
Immunohistochemical staining was performed using myosin heavy chain types 2A and 2B (DSHB, IA, USA) and anti-laminin antibody (Abcam, Cambirdge, UK). Counterstain was stained with 1 μM DAPI solution. The cross-sectional area of muscle fibers was visualized using LEICA DM 2500 (Leica, Germany) and then measured using ImageJ 1.48 software (National Institutes of Health, USA).

LC3b, p62 = assay: Western blot of autophagy markers LC3b I, LC3b II and p62 in Dex-treated myotubes; assay type: cell-based, mouse
Description: C2C12 murine skeletal muscle myoblasts were obtained from Koram Biotech (Republic of Korea). The cells were maintained in DMEM growth medium supplemented with 10% FBS, 1% penicillin, and streptomycin. When myoblasts proliferated to approximately 90%, they were differentiated into muscle fibers by treating them with DMEM differentiation medium supplemented with 2% HS, 1% penicillin, and streptomycin for 96 hours. Differentiated muscle fibers were treated with 10 μM Dex for 24 hours to induce sarcopenia. To evaluate the degree of differentiation of muscle cells, differentiating myoblasts were treated with the corresponding compound in differentiation medium for 24 or 48 hours. The concentration of intracellular protein was measured using the Bradford assay (Bio-Rad, USA, CA), and electrophoresis was performed by loading on 10% and 12% polyacrylamide gels. Afterwards, the separated proteins were transferred to a PVDF membrane, and the primary antibody used was diluted 1:1000 in TBS-T containing 5% skim milk and incubated overnight at 4° C. Secondary antibodies were diluted 1:2000 and incubated for 35 minutes at room temperature (RT). Band intensity was measured using ImageJ 1.52 software (National Institutes of Health, USA), and intracellular protein was normalized to α-tubulin.

Alox5 = Alox5 expression in Dex-treated myotubes (qPCR, Western blot); assay type: cell-based, mouse; details: qPCR and Western blotting
Description: (§1) C2C12 murine skeletal muscle myoblasts were obtained from Koram Biotech (Republic of Korea). The cells were maintained in DMEM growth medium supplemented with 10% FBS, 1% penicillin, and streptomycin. When myoblasts proliferated to approximately 90%, they were differentiated into muscle fibers by treating them with DMEM differentiation medium supplemented with 2% HS, 1% penicillin, and streptomycin for 96 hours. Differentiated muscle fibers were treated with 10 μM Dex for 24 hours to induce sarcopenia. To evaluate the degree of differentiation of muscle cells, differentiating myoblasts were treated with the corresponding compound in differentiation medium for 24 or 48 hours.
The concentration of intracellular protein was measured using the Bradford assay (Bio-Rad, USA, CA), and electrophoresis was performed by loading on 10% and 12% polyacrylamide gels. […] Band intensity was measured using ImageJ 1.52 software (National Institutes of Health, USA), and intracellular protein was normalized to α-tubulin.
For quantitative real-time PCR, transcript levels of genes of interest were analyzed using the StepOnePlus real-time PCR system (Applied Biosystems, UK). […] Denaturation was performed at 95° C. for 15 s, annealing was performed at 60° C. for 1 min, and extension was performed at 72° C. for 20 s with fluorescence detection at 72° C. after each cycle. […]

Atrogin-1 and MuRF-1 = assay: qPCR of muscle atrophy regulators in Dex-treated C2C12 myotubes; assay type: cell-based, mouse
Description: as §1
For quantitative real-time PCR, transcript levels of genes of interest were analyzed using the StepOnePlus real-time PCR system (Applied Biosystems, UK). Total RNA was reverse transcribed to prepare cDNA using AccuPower® RT PreMix (Bioneer Corporation). The obtained cDNA was subjected to real-time PCR according to the manufacturer's instructions with the following changes. PCR was performed in triplicate in a total volume of 20 μL 2× Power SYBR Green PCR Master Mix (Enzynomics, Republic of Korea) containing 200 nM (final concentration) of each specific primer and 1 μL of cDNA synthesized from 1 μg of total RNA. PCR amplification consisted of incubating the mixture at 95° C. for 10 minutes, followed by 40 cycles of denaturation, annealing, and extension. Denaturation was performed at 95° C. for 15 s, annealing was performed at 60° C. for 1 min, and extension was performed at 72° C. for 20 s with fluorescence detection at 72° C. after each cycle. After the final cycle, melting point analysis of all samples was performed within the range of 60 to 95° C. using continuous fluorescence detection. Specific cDNA samples were included in each run and used as reference material for comparison between runs. The expression level of GAPDH was used to calculate and normalize the expression levels of all other genes. Results were expressed as relative expression levels for each gene. The synthesized cDNA was amplified by quantitative real-time PCR (qRT-PCR) or standard PCR.

[1] = aged mice, 50 mg/kg orally daily, 4 weeks

## CC(C)OC(=O)C(C(=O)OC(C)C)=C1SC=CS1 [malotilate, Malotilate]
Aged C57BL/6J mice; [1]
  grip strength: significantly increased
  mean latency to fall: increased in malotilate-treated mice but did not reach statistical significance
  quadriceps muscle mass: significantly increased
  soleus muscle mass: significantly increased
Aged C57BL/6J mice; aged mice, immunohistology
  CSA of fast twitch fibers (types IIA and IIB): preserves
Aged C57BL/6J mice; aged mice, quadriceps
  average muscle fiber cross-sectional area: increased
  proportion of large myofibers (>5000 μm^2): much larger proportion
Aged C57BL/6J mice; animal model of sarcopenia due to aging
  skeletal muscle atrophy: inhibited
LC3b, p62
  autophagy: reduced
  expression of p62: increases
  ratio of LC3bII to LC3bI: decreases
Alox5
  Alox5 expression: did not affect
Atrogin-1 and MuRF-1
  Atrogin-1 expression (mRNA, qPCR): inhibited the upregulation; also recorded: decreased
  MuRF-1 expression (mRNA, qPCR): inhibited the upregulation; also recorded: decreased
